Data reported in BindingDB's records for patent US10870641 (Ribon Therapeutics, 2020).
pIC50: −log10 of the molar value.

Target: T1, Protein mono-ADP-ribosyltransferase TIPARP (Homo sapiens, UniProt Q7Z3E1)
T1 sequence (Q7Z3E1 whole entry): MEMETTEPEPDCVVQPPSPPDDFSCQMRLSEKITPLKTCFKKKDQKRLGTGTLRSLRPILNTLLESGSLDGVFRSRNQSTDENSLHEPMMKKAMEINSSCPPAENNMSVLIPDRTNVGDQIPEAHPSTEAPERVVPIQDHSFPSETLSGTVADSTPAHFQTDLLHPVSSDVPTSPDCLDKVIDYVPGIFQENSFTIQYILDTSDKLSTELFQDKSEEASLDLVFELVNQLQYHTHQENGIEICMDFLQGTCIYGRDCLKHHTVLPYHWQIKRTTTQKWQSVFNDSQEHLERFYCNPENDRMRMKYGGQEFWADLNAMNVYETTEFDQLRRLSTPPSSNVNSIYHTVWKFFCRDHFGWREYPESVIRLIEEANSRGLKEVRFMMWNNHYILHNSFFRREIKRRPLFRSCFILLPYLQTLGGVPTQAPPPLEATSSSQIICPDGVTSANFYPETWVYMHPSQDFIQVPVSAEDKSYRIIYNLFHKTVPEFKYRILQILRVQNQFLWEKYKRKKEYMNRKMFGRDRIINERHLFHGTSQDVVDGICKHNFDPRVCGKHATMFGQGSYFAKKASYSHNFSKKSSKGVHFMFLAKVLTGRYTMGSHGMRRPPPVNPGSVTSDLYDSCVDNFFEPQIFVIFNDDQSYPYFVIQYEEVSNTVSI
Assay: Enzymatic Assay
Protocol: Displacement of Probe A, a biotinylated probe binding to the TIPARP active site, was measured using a time-resolved fluorescence energy transfer (TR-FRET) assay. 20 nL of a dose response curve of each test compound was spotted in black 384-well polystyrene proxiplates (Perkin Elmer) using a Mosquito (TTP Labtech). Reactions were performed in a 8 μL volume by adding […] of TIPARP and Probe A in assay buffer (20 mM HEPES pH=8, 100 mM NaCl, 0.1% bovine serum albumin, 2 mM DTT and 0.002% Tween20), incubating with test compound at 25° C. for 30 min, then adding 2 μL of ULight-anti 6×His and LANCE Eu-W1024 labeled streptavidin (Perkin Elmer). The final concentrations of TIPARP and Probe A were 6 nM and 2 nM, respectively.

N#Cc1ccc(N2CCN(C(=O)/C=C/COC[C@H]3CCCN3c3cn[nH]c(=O)c3C(F)(F)F)CC2)nc1 [US10870641, Example 96B]
pIC50: > 7.00

C[C@@H](CC(=O)N1CCN(c2ccc(C#N)cn2)CC1)OCCOc1cn[nH]c(=O)c1C(F)(F)F [US10870641, Example 538A]
IC50: in the range around 550 nM

N#Cc1cnc(N2CCN(C(=O)c3cc(OC[C@@H]4c5ccccc5CN4c4cn[nH]c(=O)c4C(F)(F)F)ccn3)CC2)nc1 [US10870641, Example 64B]
pIC50: < 6.00
